According to paper PMC3718762, “Differential Disruption of EWS-FLI1 Binding by DNA-Binding Agents” (PLoS ONE, 2013):
Starred links: 1 amine or outer side, 2 acyl side, 3 side chain; linkers in the order of their positions; H or OH if unused. Positions of bridges follow the written chain, without caps; N, C: chain ends. Non-standard residues stand in square brackets, D forms with d. Residues, ends and D or L forms follow the SMILES beside them. Chains are numbered I, II in the order given. Actinocin(9to1) = Cc1c2oc3c(C)ccc(C(=O)[*:1])c3nc-2c(C(=O)[*:2])c(N)c1=O; NMeV = CN[C@H](C(=O)O)C(C)C; Sar = CNCC(=O)O

What was measured:
[1] = tested on: RPS26 and TP53 transcripts; assay: Quantitative RT-PCR of control transcripts in A673 cells; format: cell-based; conditions: actinomycin D treatment (Figure 2F)
Description: Duplicate wells of A673 cells were treated overnight with different concentration of actinomycin D. RNA was extracted with absolutely mRNA purification kit from Stratagene. 0.5 µg total RNA was mixed with 1 µl iScript Reverse Transcriptase, 10 µl of 2× RT-PCR reaction mix for probes from Bio-Rad, 1 µl of NR0B1, RPS26 and TP53 probes from Life Technologies and H2O up to 20 µl total volume. RT-PCR was performed in an iCycler iQ with 50°C for 10 minutes for one cycle; 95°C, 15 seconds, 60°C 40 seconds for 40 cycles. Each RNA sample was technically duplicated, and relative abundance was calculated by the delta Ct method.

[2] = molecular target: T1, EWS-FLI1 binding to the NR0B1 promoter (Homo sapiens, UniProt Q01543+Q01844); assay: ChIP-qPCR, EWS-FLI1 binding to NR0B1 promoter in A673 cells; format: cell-based; conditions: 5 nM, 4 hrs, anti-FLI1 ChIP, DMSO 31-fold, p = 0.0018
T1 construct: EWS (EWSR1, Q01844) N-terminal portion, fusion partner; endogenous in cells; host or cells: A673 Ewing sarcoma cells
T1 sequence (Q01844+Q01543 with tags, fused parts or gaps): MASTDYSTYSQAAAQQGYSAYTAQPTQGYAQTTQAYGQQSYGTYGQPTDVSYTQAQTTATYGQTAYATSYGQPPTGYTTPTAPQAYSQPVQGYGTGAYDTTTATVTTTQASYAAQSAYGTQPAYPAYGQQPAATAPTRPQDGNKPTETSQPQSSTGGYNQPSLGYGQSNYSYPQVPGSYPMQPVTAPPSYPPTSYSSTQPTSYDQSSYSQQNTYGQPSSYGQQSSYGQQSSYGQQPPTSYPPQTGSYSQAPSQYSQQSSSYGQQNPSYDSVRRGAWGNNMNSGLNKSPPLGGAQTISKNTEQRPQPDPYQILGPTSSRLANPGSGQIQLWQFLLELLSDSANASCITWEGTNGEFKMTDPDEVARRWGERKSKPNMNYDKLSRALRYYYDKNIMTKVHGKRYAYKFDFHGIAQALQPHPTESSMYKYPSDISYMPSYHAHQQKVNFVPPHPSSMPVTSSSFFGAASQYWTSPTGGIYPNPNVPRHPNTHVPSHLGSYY
Description: (§1) ChIP-qPCR was performed as previously described. Briefly, cells were treated with compounds for 4 hrs, then crosslinked, lysed, and chromatin fragmented. After ChIP, quantitative PCR was used to quantify NR0B1, p53, and RPS26 loci, and fold enrichment was determined by the formula: Fold enrichment = 2χ(Input Ct-ChIP Ct)/2χ(Input Ct-IgG Ct).
(§2) We used chromatin immunoprecipitation coupled with quantitative PCR (ChIP-qPCR) to assess effects of actinomycin D on EWS-FLI1 binding to chromatin in cells. A673 cells were treated with either actinomycin D at 5 nM, or vehicle. After crosslinking, chromatin was sheared and EWS-FLI1-DNA complexes were immunoprecipitated using an anti-FLI1 antibody. We used primers flanking the EWS-FLI1-binding site in the promoter of the NR0B1 gene to quantify binding of EWS-FLI1. We used RPS26 and TP53 as control loci since neither are bound by EWS-FLI [15] and we have shown that RPS26 and TP53 transcript levels were unaffected by actinomycin D treatment (Figure 2F). Without actinomycin D treatment, binding of EWS-FLI1 to the NR0B1 promoter was enriched 31-fold by comparison to IgG controls (Figure 4A, DMSO). Treatment of cells with actinomycin D reduced binding of EWS-FLI1 to the NR0B1 promoter to 4-fold (p = 0.0018; Figure 4A).

RPS26 and TP53 loci = assay: ChIP-qPCR, control loci in A673 cells; format: cell-based; conditions: 5 nM, 4 hrs, anti-FLI1 ChIP
Description: as §1, §2

EWS-FLI1-induced genes = assay: Gene expression profiling with GSEA in A673 cells; format: cell-based; conditions: 5 nM, 24 hours
Description: Ewing sarcoma A673 cells at 65% confluence were treated in duplicate with DMSO (0.2%) or 5 nM actinomycin D for 24 hours. RNA was extracted with an Absolutely RNA kit. 100 ng of total RNA was hybridized to Affymetrix Gene 1.0 ST Arrays (DFCI Microarray Core Facility). Array quality was verified before background correction, RMA normalization and log2 conversion using the Bioconductor R package affy (URL: http://www.bioconductor.org). Differential gene expression was determined using the limma Bioconductor package. Genes with a fold-change >2 and Benjamini-Hochberg-corrected p-value <0.01 were retained for further consideration. Gene expression data have been deposited in GEO (GSE45414) and can be accessed at URL: http://www.ncbi.nlm.nih.gov/geo/query/acc.cgi?acc=GSE45414.
Consistent with the enrichment of E2F targets among EWS-FLI1-induced genes we noted in the shRNA study above (Figure 3A), we also found down-regulation of this class of signatures in A673 cells treated with low-dose actinomycin D (Figure 3B, black circles).

A673 = assay: MTT cell viability assay; format: cell-based; conditions: Homo sapiens, 44 hours
Description: (§3) Cells were seeded at a density of 1.5×10^5/ml with 100 µl/well in 96 well plates and treated with actinomycin D at 158 nM, 50 nM, 15.8 nM, 5 nM, 1.58 nM, 0.5 nM and 0 (6 wells/treatment) for 44 hours. CellTiter 96 was used to assess cell viability after a 2 hr incubation at 37°C. IC50 values were calculated using Prism.
(§4) To determine if cells driven by EWS-FLI1 are more sensitive to actinomycin D, we assessed cell growth and viability using a MTT assay after 44 hrs exposure to actinomycin D. Although all cell lines were affected by actinomycin D, the Ewing sarcoma cell lines were as a group more sensitive by comparison to other cell lines tested (Figure 5).

Cado-es = assay: MTT cell viability assay; format: cell-based; conditions: 44 hours
Description: as §3, §4

EW-8 = assay: MTT cell viability assay; format: cell-based; conditions: EW8, 44 hours
Description: as §3, §4

Hela = assay: MTT cell viability assay; format: cell-based; conditions: Homo sapiens, 44 hours
Description: as §3, §4

Ovcar-3 = assay: MTT cell viability assay; format: cell-based; conditions: Homo sapiens, 44 hours
Description: as §3, §4

PC-3 = assay: MTT cell viability assay; format: cell-based; conditions: Homo sapiens, 44 hours
Description: as §3, §4

Skov-3 = assay: MTT cell viability assay; format: cell-based; conditions: Homo sapiens, SK-OV-3, 44 hours
Description: as §3, §4

TC-32 = assay: MTT cell viability assay; format: cell-based; conditions: Homo sapiens, 44 hours
Description: as §3, §4

TC-71 = assay: MTT cell viability assay; format: cell-based; conditions: 44 hours
Description: as §3, §4

EWS-FLI1 = assay: AlphaScreen proximity assay, binding of recombinant EWS-FLI1 to cognate DNA oligo

Question: With Cc1c2oc3c(C)ccc(C(=O)N[C@@H]4C(=O)N[C@H](C(C)C)C(=O)N5CCC[C@H]5C(=O)N(C)CC(=O)N(C)[C@@H](C(C)C)C(=O)O[C@@H]4C)c3nc-2c(C(=O)N[C@@H]2C(=O)N[C@H](C(C)C)C(=O)N3CCC[C@H]3C(=O)N(C)CC(=O)N(C)[C@@H](C(C)C)C(=O)O[C@@H]2C)c(N)c1=O [Actinomycin D] (I: T[dV]P[Sar][NMeV] / II: T[dV]P[Sar][NMeV]; ester I:1-I:C, II:1-II:C; linker I:N-II:N via Actinocin(9to1)) as the molecule, how does the “RPS26 and TP53 transcript levels” value [1] read?
Answer: unaffected

Question: And the “Binding of EWS-FLI1 to the NR0B1 promoter, fold enrichment over IgG control” value [2]?
Answer: 4 fold

Question: And the “Effect on RPS26 or TP53 loci in ChIP” value (RPS26 and TP53 loci)?
Answer: did not affect

Question: What about the “Expression of EWS-FLI1-induced genes (GSEA)” value (EWS-FLI1-induced genes) of the same molecule?
Answer: repressed to a significant degree

Question: And the IC50 (A673)?
Answer: 2.5 nM

Question: What about the IC50 (Cado-es) of the same molecule?
Answer: 7 nM

Question: What about the IC50 (EW-8) of the same molecule?
Answer: 3.5 nM

Question: What about the IC50 (Hela) of the same molecule?
Answer: > 20 nM

Question: And the IC50 (Ovcar-3)?
Answer: > 20 nM

Question: And the IC50 (PC-3)?
Answer: > 20 nM

Question: What about the IC50 (Skov-3) of the same molecule?
Answer: > 20 nM

Question: And the IC50 (TC-32)?
Answer: 1 nM

Question: And the IC50 (TC-71)?
Answer: 3 nM

Question: What about the “Disruption of EWS-FLI1 binding compared with p53 binding in the parallel assays” value (EWS-FLI1; EWS-FLI1 versus p53) of the same molecule?
Answer: greatest differential effect

Question: What about the IC50 (EWS-FLI1; read-out: IC50 EWS-FLI1, disruption of recombinant EWS-FLI1 binding to DNA) of the same molecule?
Answer: 45 nM
